In the experiment the target is T1, intermediate-conductance Ca2+-activated K+ channel (IKCa, KCa3.1) (Homo sapiens, UniProt O15554).
T1 construct: gene KCNN4
Put plainly: cell-attached single-channel recording in Jurkat T-lymphocytes (activator). In kind it is cell-based.

The values that follow come from PMC7582672, “Actions of FTY720 (Fingolimod), a Sphingosine-1-Phosphate Receptor Modulator, on Delayed-Rectifier K^+ Current and Intermediate-Conductance Ca^2+-Activated K^+ Channel in Jurkat T-Lymphocytes” (Molecules, 2020).

T1 sequence (O15554 whole entry): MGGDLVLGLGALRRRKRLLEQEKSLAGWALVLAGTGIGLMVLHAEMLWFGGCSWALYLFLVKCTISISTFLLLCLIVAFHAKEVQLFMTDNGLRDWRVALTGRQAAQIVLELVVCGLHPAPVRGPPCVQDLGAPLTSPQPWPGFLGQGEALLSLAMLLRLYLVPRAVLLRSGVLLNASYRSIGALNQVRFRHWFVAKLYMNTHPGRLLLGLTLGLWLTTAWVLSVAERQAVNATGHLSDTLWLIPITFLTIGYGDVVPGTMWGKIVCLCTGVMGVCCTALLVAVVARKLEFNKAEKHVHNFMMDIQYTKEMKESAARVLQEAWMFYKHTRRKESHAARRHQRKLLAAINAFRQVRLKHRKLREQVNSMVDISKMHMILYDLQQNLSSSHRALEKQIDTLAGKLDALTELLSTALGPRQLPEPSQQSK

With `Oc1cc2ccccc2c2ccccc12` [9-phenanthrol], the “cell-attached single-channel recording in Jurkat T-lymphocytes (activator)” value was “activity of IKCa channels, which was sensitive to block by TRAM-34 and to stimulation by 9-phenanthrol, was readily detected”.
